Test results taken from patent US7285572B2, “CaSR antagonist” (Japan Tobacco Inc., priority 2003, dated 2007).

How the values were obtained:
human calcium receptor = molecular target: T1, human calcium receptor (Homo sapiens, UniProt P41180); test: Evaluation of antagonistic action on calcium receptor using reporter gene (luciferase); assay type: cell-based; conditions: rat adrenal derived cells with luciferase and human calcium receptor cDNA, 5 mM calcium chloride, 4 hrs; read-out: IC50 (concentration showing 50% inhibitory rate of luciferase activity)
T1 construct: expressed in transfected cells; host or cells: cell strain derived from rat adrenal, co-transfected with luciferase cDNA
T1 sequence (P41180 20-1078): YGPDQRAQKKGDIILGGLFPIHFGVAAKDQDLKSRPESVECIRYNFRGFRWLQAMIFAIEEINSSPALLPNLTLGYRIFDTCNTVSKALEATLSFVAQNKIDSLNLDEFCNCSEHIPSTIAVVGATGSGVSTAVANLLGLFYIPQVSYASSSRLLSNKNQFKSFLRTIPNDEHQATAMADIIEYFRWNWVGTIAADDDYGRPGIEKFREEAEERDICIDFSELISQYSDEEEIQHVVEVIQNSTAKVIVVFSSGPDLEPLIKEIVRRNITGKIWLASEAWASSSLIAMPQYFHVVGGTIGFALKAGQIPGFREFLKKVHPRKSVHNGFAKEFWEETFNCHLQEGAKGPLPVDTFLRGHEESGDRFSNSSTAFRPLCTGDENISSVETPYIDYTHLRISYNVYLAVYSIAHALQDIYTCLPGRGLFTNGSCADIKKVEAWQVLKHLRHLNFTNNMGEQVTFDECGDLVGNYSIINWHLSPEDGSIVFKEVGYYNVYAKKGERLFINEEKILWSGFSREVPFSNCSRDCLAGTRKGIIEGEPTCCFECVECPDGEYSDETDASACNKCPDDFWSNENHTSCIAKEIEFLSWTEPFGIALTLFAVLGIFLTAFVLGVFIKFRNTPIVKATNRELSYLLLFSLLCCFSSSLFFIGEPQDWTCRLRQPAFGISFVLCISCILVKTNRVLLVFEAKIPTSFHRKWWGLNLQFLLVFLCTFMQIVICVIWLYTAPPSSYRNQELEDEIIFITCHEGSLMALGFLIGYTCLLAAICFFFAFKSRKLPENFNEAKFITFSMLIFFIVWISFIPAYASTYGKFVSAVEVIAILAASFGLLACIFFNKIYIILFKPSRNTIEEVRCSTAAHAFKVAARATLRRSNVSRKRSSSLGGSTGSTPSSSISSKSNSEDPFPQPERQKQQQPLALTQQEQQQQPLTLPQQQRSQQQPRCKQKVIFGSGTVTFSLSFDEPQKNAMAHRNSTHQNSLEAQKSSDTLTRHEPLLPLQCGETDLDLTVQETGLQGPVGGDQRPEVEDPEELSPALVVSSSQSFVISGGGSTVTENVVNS
Protocol: Evaluation of Antagonistic Action on Calcium Receptor Using Reporter Gene
Luciferase cDNA and human calcium receptor cDNA were introduced into a cell strain derived from rat adrenal to transform the cells, and the transformed cells were cultured in a medium (80 μl, F12 medium containing 0.5% dialyzed horse serum and 0.25% dialyzed bovine fetal serum). A dimethyl sulfoxide solution containing a test compound at 0.1-10000 μM was diluted 100-fold with the medium and added to the test compound group at 10 μl per well (final concentration of dimethyl sulfoxide is 0.1%). In the same manner as in test compound group, dimethyl sulfoxide diluted 100-fold with medium was added to a control group and a blank group. Then, 50 mM calcium chloride-containing medium was added to every well except the blank group at 10 μl per well (final concentration is 5 mM). A medium alone was added to the blank group. After culture for 4 hrs, luciferase substrate was added and the luciferase activity was measured with a photoluminometer. The inhibitory rate (%) was calculated from the obtained measured values according to the following formula.
Based on the results, the concentration (IC50) showing 50% inhibitory rate was determined.

CYP2D6 = molecular target: T2, CYP2D6 (Homo sapiens, UniProt P10635); test: Metabolic enzyme CYP2D6 inhibitory activity (BD Bioscience kit); assay type: in vitro ADME; conditions: enzyme activity free of test compound as 100%; read-out: CYP2D6 IC50 (concentration showing 50% inhibition)
T2 construct: purchased BD Bioscience
Protocol: Metabolic Enzyme CYP2D6 Inhibitory Activity
Using a metabolic enzyme CYP2D6 inhibition measurement kit (BD Bioscience) and following the manual of the kit, the inhibitory activity of the test compound was measured. With the enzyme activity free of the test compound as 100%, the concentration (IC50) showing 50% inhibition was determined. The results are shown in Table 8, wherein “>10” means over 10 μM.

PTH secretion [1] = test: PTH secretagogue action, oral administration to fasted male SD rats, serum PTH by ELISA; assay type: in vivo, rat; conditions: 3 mg/kg oral, test compound administration group
Protocol: The test compound was orally administered to 5 to 9-week-old male SD rats (Charles River Japan, Inc.) fasted for 20 hr, using a solvent (0.5% aqueous methyl cellulose solution) at a dose of 3 mg/5 ml/kg or 30 mg/5 ml/kg. A solvent alone was orally administered to the control group at a dose of 5 ml/kg. The blood was drawn from the tail vein 15 min, 30 min, 60 min and 120 min after the administration of the test compound, and serum was obtained. The serum PTH concentration was measured using rat PTH ELISA kit (Amersham Biosciences).

[2] = tested on: osteoblast and osteoclast; conditions: in vitro; cited from earlier work
PTH secretion [3] = test: Reproductive test of NPS-2143 of the reference (PTH secretion); assay type: in vivo
PTH release = conditions: cited from earlier work

T2 sequence (P10635 whole entry): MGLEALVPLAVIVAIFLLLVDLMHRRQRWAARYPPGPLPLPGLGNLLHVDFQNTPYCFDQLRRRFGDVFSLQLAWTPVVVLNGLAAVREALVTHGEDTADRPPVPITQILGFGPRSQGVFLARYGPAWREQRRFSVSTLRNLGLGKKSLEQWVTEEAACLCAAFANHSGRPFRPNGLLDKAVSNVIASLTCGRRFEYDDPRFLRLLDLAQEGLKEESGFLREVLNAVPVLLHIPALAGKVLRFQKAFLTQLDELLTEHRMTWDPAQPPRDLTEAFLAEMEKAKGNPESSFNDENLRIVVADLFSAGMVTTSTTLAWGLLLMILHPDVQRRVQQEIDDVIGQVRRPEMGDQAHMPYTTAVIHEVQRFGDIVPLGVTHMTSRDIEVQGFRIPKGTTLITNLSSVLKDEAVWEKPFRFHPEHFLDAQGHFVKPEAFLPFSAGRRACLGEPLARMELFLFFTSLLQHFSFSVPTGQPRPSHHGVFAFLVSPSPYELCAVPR

SMILES | IC50 (human calcium receptor) | IC50 (CYP2D6) | serum PTH concentration 15 min later (PTH secretion [1]) | serum PTH concentration 30 min later (PTH secretion [1]) | direct effect on osteoblast and osteoclast [2] | PTH secretion promoting action (duration) (PTH secretion [3]) | blood concentration of NPS-2143 8 hours after the administration (PTH release; 100 μmol/kg, OVX rat) | blood concentration of NPS-2143 24 hours later (PTH release; 100 μmol/kg, OVX rat) | blood PTH concentration 4 hours later (PTH release; NPS-2143 100 μmol/kg, OVX rat) | blood PTH concentration in 30 minutes (PTH release; NPS-2143 100 μmol/kg, OVX rat) | bone decrease or bone increase (PTH release; oral, OVX rats) | release of PTH (PTH release; oral, OVX rats)
C[C@@H](OC[C@H](O)CNC(C)(C)Cc1ccc2ccccc2c1)c1ccccc1CCC(=O)O [Example 1, 3-[2-[(1R)-1-[(2R)-2-hydroxy-3-[[2-methyl-1-(naphthalen-2-yl)propan-2-yl]amino]propoxy]ethyl]phenyl]propionic acid] | 0.025 µM | 9.5 µM | 24.86 ± 3.59 pg/mL | 18.58 ± 2.15 pg/mL | – | – | – | – | – | – | – | –
CC(C)(Cc1ccc2ccccc2c1)NC[C@@H](O)COc1cccc(Cl)c1C#N [NPS-2143] | – | – | – | – | did not show any direct effect | sustained PTH secretion promoting action | not less than 100 ng/ml | ≤ 10 ng/mL | about 140 pg/ml | about 115 pg/ml | free of bone decrease or bone increase | significantly promotes release of PTH
C[C@@H](OC[C@H](O)CNC(C)(C)Cc1ccc2ccccc2c1)c1ccccc1-c1ccc(P(=O)(O)O)cc1 [Example 12, Disodium [2′-[(1R)-1-[(2R)-2-hydroxy-3-[[2-methyl-1-(naphthalen-2-yl)propan-2-yl]amino]propoxy]ethyl]biphenyl-4-yl]phosphonate] | 0.029 µM | > 10 µM | – | – | – | – | – | – | – | – | – | –
